Tested on: mammary adenocarcinoma MA17/A
Assay: Oral antitumor efficacy and toxicity against early stage mammary adenocarcinoma MA17/A grafted subcutaneously in mice
Format: in vivo
Conditions: for log cell kill: tumor doubling time 1.3 days
Procedure: Formulation II: 0.2 mg/ml of the compound of formula (la) was mixed in a solution comprising 5% ethanol, 5% Polysorbate 80, and 90% of an aqueous 5% glucose solution.
15 female C3H/HeN mice, each weighing approximately 20 g, were each administered Formulation II orally in a dose of 20.6 mg.kg^−1 per administration per mouse,12.8, 8.4 and 5.5 each day for 5 days.
Animals: The animals subjected to the experiment, generally mice, were subcutaneously grafted bilaterally with 30 to 60 mg of a mammary tumor fragment (adenocarcinoma MA17/A) on day 0. The animals bearing tumors were mixed before being assigned to the various treatment and control groups. Chemotherapy generally began from 3 to 7 days after grafting, depending on the type of tumour, and the animals were observed every day. The different animal groups were weighed 3 or 4 times a week until the maximum weight loss was attained, and the groups were then weighed at least once a week until the end of the trial.
Efficacy: The efficacy of the new pharmaceutical form was evaluated by:
the tumor growth inhibitor (T/C)
The T/C value in percent is an indication of antitumor effectiveness: [formula]
According to NCI standards, a T/C<42% is the minimal level to declare activity. A T/C<10% is considered to indicate high antitumor activity and is the level used by NCI to justify further development (Decision Network-2 level, DN-2).
The T/C value can be converted to an arbitrary activity rating according to the NCI criteria:
and quantified by the log cell kill which is determined by the following formula:
log10 cells killed=T−C(days)/3.32×Td
in which T−C represents the time in days for the tumors of the treated group (T) and the tumors of the non-treated group (C) to reach a predetermined value (750 mg for example). This method is described in T. H. CORBETT et al., Cancer, 40, 2660-2680 (1977); F.M. SCHABEL et al., Cancer Drug Development, Part B. Methods in Cancer Research, 17, 3-51, New York Academic Press Inc. (1979), the disclosure of which is incorporated by reference herein. A product is considered to be active if log10 cells killed is greater than or equal to 0.7. A product is considered to be very active if log10 cells killed is greater than 2.8.

[1] = p.o. 5.5 mg/kg/dose, days 3 to 7, total dose 27.5 mg/kg
[2] = p.o. 8.4 mg/kg/dose, days 3 to 7, total dose 42.0 mg/kg
[3] = p.o. 12.8 mg/kg/dose, days 3 to 7, total dose 64.0 mg/kg

With `CO[C@H]1C(=O)[C@]2(C)[C@@H](OC)C[C@H]3OC[C@@]3(OC(C)=O)[C@H]2[C@H](OC(=O)c2ccccc2)[C@]2(O)C[C@H](OC(=O)[C@H](O)[C@@H](NC(=O)OC(C)(C)C)c3ccccc3)C(C)=C1C2(C)C` [Product of formula IA, 4α-acetoxy-2α-benzoyloxy-5β,20-epoxy-1β-hydroxy-7β,10β-dimethoxy-9-oxo-11-taxen-13α-yl (2R, 3S)-3tert-butoxycarbonylamino-2-hydroxy-3-phenylpropionate] the Comments [1] was “Inactive”, the “Drug death (days or death)” value [1] was 0/5 and the T-C [1] was 2.3 days. For the same compound, the “Time for median tumor to reach 750 mg” value [1] was 14.4 days, the “Average body weight change in % per mouse post last treatment (day)” value (p.o. 5.5 mg/kg/dose, days 3 to 7, total dose 27.5 mg/kg, day 8) was “+0.2(8) %” and the “Median tumor weight in mg on day 12 (range)” value (“Median tumor weight in mg” below) [1] was 271(107-432) mg. For the same compound, the “T/C in % day 12” value [1] was 38%, the log cell kill [1] was 0.5 and the Comments [2] was “Active”. For the same compound, the “Drug death (days or death)” value [2] was 0/5, the T-C [2] was 6.1 days and the “Time for median tumor to reach 750 mg” value [2] was 18.2 days. For the same compound, the “Average body weight change in % per mouse post last treatment (day)” value (p.o. 8.4 mg/kg/dose, days 3 to 7, total dose 42.0 mg/kg, day 9) was −11.0(9) %, the “Median tumor weight in mg” value [2] was 0(0-268) mg and the “T/C in % day 12” value [2] was 0%. For the same compound, the log cell kill [2] was 1.4, the Comments [3] was “HNTD” and the “Drug death (days or death)” value [3] was 0/5. The T-C [3] was 13.8 days, the “Time for median tumor to reach 750 mg” value [3] was 25.9 days and the “Average body weight change in % per mouse post last treatment (day)” value (p.o. 12.8 mg/kg/dose, days 3 to 7, total dose 64.0 mg/kg, day 10) was −17.9(10) %. For the same compound, the “Median tumor weight in mg” value [3] was 0(0-0) mg, the “T/C in % day 12” value [3] was 0% and the log cell kill [3] was 3.2. For the same compound, the Comments (p.o. 20.6 mg/kg/dose, days 3 to 7, total dose 103.0 mg/kg) was “Toxic” and the “Drug death (days or death)” value (p.o. 0.2 ml, 20.6 mg/kg/dose, days 3 to 7, total dose 103.0 mg/kg, female C3H/HeN mice) was 5/5(7,2d8,10,11).

— US20020082291A1, “NEW USE OF TAXOID DERIVATIVES” (priority 1999, published 2002)
